{"source": "paper PMC7555312", "about": "“Functional Characterization of Temporin-SHe, a New Broad-Spectrum Antibacterial and Leishmanicidal Temporin-SH Paralog from the Sahara Frog (Pelophylax saharicus)” (International Journal of Molecular Sciences, 2020)", "key": {"E. coli ATCC 35218": {"test_system": "E. coli ATCC 35218", "type": "cell-based, Escherichia coli", "quoted_text": "(§3) Antifungal activity was evaluated against C. albicans (ATCC 90028), C. parapsilosis (ATCC 22019) and S. cerevisiae.\n(§4) Antimicrobial activity was assessed with a liquid growth inhibition assay performed according to a previously described protocol [14] using the Clinical and Laboratory Standards Institute (CLSI) guidelines. Briefly, in 96-well microtitration plates, mid-log-phase bacteria diluted to 10^6 CFU/mL in Mueller–Hinton (MH) broth were added to different concentrations of synthetic temporin-SHe (1–200 µM, final concentrations) and incubated at 37 °C for 18–20 h, under shaking (150 rpm). For E. faecalis, L. ivanovii and yeasts/fungi, 10^6 CFU/mL suspensions were prepared in LB broth, brain heart infusion (BHI) medium and Yeast Peptone Dextrose (YPD) medium, respectively, and incubation was performed at 30 °C for yeasts/fungi. […] MIC values represent the average of three independent experiments, each performed in triplicate with negative (no peptide) and positive (formaldehyde 0.7%) controls."}, "[1]": {"test_system": "L. infantum promastigotes (strain MHOM/MA/67/ITMAP-263)", "type": "cell-based, Leishmania infantum", "details": "72 h, 26 °C", "description": "(§1) Antileishmanial activity of temporin-SHe was analyzed by a luminescence-based growth inhibition method using Leishmania promastigotes transfected with the vector pGMαNEOαLUC containing the gene LUC that codes for the firefly luciferase, cultured at 26 °C in SDM-79 medium supplemented with 10% fetal calf serum (Gibco), as previously described. Mid-log-phase promastigotes (1.25 × 10^6 cells/mL) were added in 96-well plates containing different concentrations of synthetic temporin-SHe (3.125–50 µM, final concentrations), and incubated 72 h at 26 °C. […] IC50 was determined with GraphPad Prism® 6.0 software (GraphPad Software, La Jolla, CA, USA) using a sigmoidal dose–response curve fitting equation."}, "S. aureus ATCC 25923 [2]": {"test_system": "S. aureus ATCC 25923", "type": "cell-based, Staphylococcus aureus", "quoted_text": "as §4"}, "E. coli ML-35p [3]": {"test_system": "E. coli ML-35p", "test": "Membrane permeabilization assay (ONPG hydrolysis)", "type": "cell-based, Escherichia coli", "details": "increasing peptide concentrations, 2.5 mM ONPG in PBS, 37 °C", "description": "(§2) The ability of temporin-SHe to permeabilize bacterial cytoplasmic membrane was determined using the Gram-negative strain E. coli ML-35p and the Gram-positive strain S. aureus ST1065, as described. Briefly, after incubation of bacteria (37 °C) in 96-well plates with PBS containing 2.5 mM o-nitrophenyl-β-D-galactopyranoside (ONPG) and different concentrations of temporin-SHe, the production of o-nitrophenol (ONP) resulting from hydrolysis of ONPG by intracytoplasmic β-galactosidase was monitored at 405 nm according to the time (Fluostar Galaxy plate reader, BMG Labtech, Champigny-sur-Marne, France). Wells containing bacteria and ONPG, with no peptide, were used as negative control. Two independent experiments were performed in triplicate. Results are from a representative experiment and were expressed as the mean ± S.D."}, "B. megaterium": {"test_system": "B. megaterium", "type": "cell-based, Bacillus megaterium", "quoted_text": "as §3, §4"}, "E. faecalis ATCC 29212": {"test_system": "E. faecalis ATCC 29212", "type": "cell-based, Enterococcus faecalis", "quoted_text": "as §3, §4"}, "S. aureus ST1065 [4]": {"test_system": "S. aureus ST1065", "type": "cell-based, Staphylococcus aureus"}, "S. aureus ST1065 [5]": {"test_system": "S. aureus ST1065", "test": "Membrane permeabilization assay (ONPG hydrolysis)", "type": "cell-based, Staphylococcus aureus", "details": "increasing peptide concentrations, 2.5 mM ONPG in PBS, 37 °C", "description": "as §2"}, "S. aureus ST1065 [6]": {"test_system": "S. aureus ST1065", "test": "Time-killing assay", "type": "cell-based, Staphylococcus aureus", "details": "two-fold MIC (6.25 µM temporin-SHe), 10^6 cfu/mL in PBS, plate counting", "description": "Aliquots were withdrawn at different times and spread onto LB agar plates for cell counting after overnight incubation at 37 °C. Controls corresponding to the bacterial suspensions without peptide were also run. Two independent experiments were performed in triplicate. Results were expressed as the mean ± S.D. of a representative experiment."}, "C. albicans ATCC 90028": {"test_system": "C. albicans ATCC 90028", "type": "cell-based, Candida albicans", "quoted_text": "as §3, §4"}, "human THP-1 monocytes": {"test_system": "human THP-1 monocytes", "test": "Cytotoxicity, MTT assay", "details": "THP-1, 72 h, 37 °C, calculated mean from dose–response curves", "description": "Hemolytic activity of temporin-SHe was determined against human red blood cells (RBCs), as described in [13]. After incubating the peptide (1–200 µM, final concentrations) with RBCs (2 × 10^7 cells) in 100 µL PBS for 1 h at 37 °C, centrifugation was completed (12,000× g, 15 s) and the absorbance of the supernatant was measured at 450 nm. RBCs suspended in PBS or 0.1% (v/v) Triton X-100 yielded an absorbance associated with 0% and 100% hemolysis, respectively. The percentage of hemolysis was calculated as follow: Hemolysis (%) = [A450 (RBCs with peptide)–A450 (RBCs in PBS)]/[A450 (RBCs with Triton X-100)–A450 (RBCs in PBS)]. Cytotoxicity of temporin-SHe was also assessed on human leukemia monocyte cell line THP-1. Briefly, monocytes (6.25 × 10^5 cells/mL) were incubated with different peptide concentrations (3–50 µM, final concentrations) for 72 h at 37 °C, then cell viability was determined by the MTT assay according to a previously described protocol. Results were expressed as the mean of two independent experiments performed in triplicate."}, "[7]": {"test_system": "L. major promastigotes (strain MHOM/SU/73/5-ASKH)", "type": "cell-based, Leishmania major", "details": "72 h, 26 °C", "description": "as §1"}, "E. coli ML-35p [8]": {"test_system": "E. coli ML-35p", "type": "cell-based, Escherichia coli", "details": "liquid growth inhibition (CLSI), 10^6 CFU/mL in MH broth, 37 °C, 18–20 h, OD 630 nm; mean of three independent experiments in triplicate", "quoted_text": "as §3, §4"}, "[9]": {"test_system": "C. parapsilosis ATCC 22019", "type": "cell-based, Candida parapsilosis", "quoted_text": "as §3, §4"}, "[10]": {"test_system": "L. braziliensis promastigotes (strain MHOM/BR/75/M2904)", "type": "cell-based, Leishmania braziliensis", "details": "72 h, 26 °C", "description": "as §1"}, "A. baumannii ATCC 19606": {"test_system": "A. baumannii ATCC 19606", "type": "cell-based, Acinetobacter baumannii", "quoted_text": "as §4"}, "S. aureus ATCC 25923 [11]": {"test_system": "S. aureus ATCC 25923", "test": "Membrane depolarization assay, DiSC3(5)", "type": "cell-based, Staphylococcus aureus", "details": "peptide at 2-fold MIC; 10^7 cfu/mL in PBS, 1 µM DiSC3(5), 37 °C, 20 min recording; representative of three assays", "description": "The depolarization of S. aureus ATCC 25923 cytoplasmic membrane induced by temporin-SHe and temporin-SHd was investigated using the membrane potential-sensitive cyanine dye DiSC3(5) (3,3′-dipropylthiadicarbocyanine iodide), as detailed in [29]. An amount of 700 µL of bacteria resuspended in PBS (10^7 cfu/mL) containing 1 μM DiSC3(5) were preincubated in the dark during 10 min at 37 °C, and then 100 µL of 1 mM KCl were added to the mixture. Fluorescence (λex = 622 nm; λem = 670 nm) was recorded during 20 min at 37 °C (Varian Cary Eclipse fluorescence spectrophotometer) after addition of the peptide (200 µL, final concentration: 2-fold above the MIC). Three independent experiments were performed and the results correspond to a representative experiment with negative (PBS) and positive (melittin) controls."}, "K. pneumoniae ATCC 13883": {"test_system": "K. pneumoniae ATCC 13883", "type": "cell-based, Klebsiella pneumoniae", "quoted_text": "as §4"}, "[12]": {"details": "luciferase-expressing promastigotes 1.25 × 10^6 cells/mL, Steady-Glo, mean of three independent experiments in triplicate"}, "[13]": {"details": "peptide 12.5 µM, promastigotes, mean of three independent assays in triplicates"}}, "note": "Where no end group is shown, it is not given here.", "data": [{"substance": "FLPALAGIAGLLGKIF-NH2 [Temporin-SHe]", "values": [{"measurement": "MIC", "setting": "E. coli ATCC 35218", "value": 50, "unit": "µM"}, {"measurement": "IC50", "setting": "[1]; [12]", "value": 4.6, "unit": "µM"}, {"measurement": "inhibition of L. infantum growth", "setting": "[1]; peptide 3.12 µM, promastigotes, mean of three independent assays in triplicates", "value": 42, "unit": "%"}, {"measurement": "MIC", "setting": "S. aureus ATCC 25923 [2]", "value": 3.12, "unit": "µM"}, {"measurement": "cytoplasmic membrane permeabilization (ONP production, A405)", "setting": "E. coli ML-35p [3]", "value": "time- and concentration-dependent manner"}, {"measurement": "MIC", "setting": "B. megaterium", "value": 1.56, "unit": "µM"}, {"measurement": "MIC", "setting": "E. faecalis ATCC 29212", "value": 12.5, "unit": "µM"}, {"measurement": "MIC", "setting": "S. aureus ST1065 [4]", "value": 3.12, "unit": "µM"}, {"measurement": "cytoplasmic membrane permeabilization (ONP production, A405)", "setting": "S. aureus ST1065 [5]", "value": "time- and concentration-dependent manner"}, {"measurement": "time to complete killing", "setting": "S. aureus ST1065 [6]", "value": "≤ 5", "unit": "min"}, {"measurement": "MIC", "setting": "C. albicans ATCC 90028", "value": ">100", "unit": "µM"}, {"measurement": "LC50 (lethal concentration 50)", "setting": "human THP-1 monocytes", "value": 11.4, "unit": "µM"}, {"measurement": "IC50", "setting": "[7]; [12]", "value": 11.6, "unit": "µM"}, {"measurement": "Leishmania growth inhibition (L. major)", "setting": "[7]; [13]", "value": 85, "unit": "%"}, {"measurement": "MIC", "setting": "E. coli ML-35p [8]", "value": 50, "unit": "µM"}, {"measurement": "MIC", "setting": "[9]", "value": 50, "unit": "µM"}, {"measurement": "IC50", "setting": "[10]; [12]", "value": 10.5, "unit": "µM"}, {"measurement": "Leishmania growth inhibition (L. braziliensis)", "setting": "[10]; [13]", "value": 87, "unit": "%"}, {"measurement": "MIC", "setting": "A. baumannii ATCC 19606", "value": 25, "unit": "µM"}, {"measurement": "membrane depolarization (DiSC3(5) fluorescence increase)", "setting": "S. aureus ATCC 25923 [11]", "value": "instantaneous"}, {"measurement": "MIC", "setting": "K. pneumoniae ATCC 13883", "value": 100, "unit": "µM"}]}]}
